# Experimental data: a melting point compilation (Tetko et al.; mined from patent text by program, amines drawn as free bases though some values may be those of a salt)
row,Structure (SMILES),melting point [°C]
1,CCC(=O)N[C@H]1CCc2c(ccc(OC)c2OC)C1,149 to 151
2,Nc1cc(=O)n(Cc2ccc(C(F)(F)F)c(Cl)c2)[nH]1,83
3,Cc1nccnc1C(=O)Nc1ccc(C(C(F)(F)F)C(F)(F)F)c(CC(C)C)c1,133 to 134
4,CCCCOc1nc(N)c2[nH]c(=O)n(CCCCN(CC(C)(C)CN(C)C)S(=O)(=O)c3cccc(CC(=O)O)c3)c2n1,175 to 176
5,CC(C)n1nc(-c2c(-c3ccccc3)nn3ccc(N4CCN(Cc5ccccc5)CC4)cc23)ccc1=O,136 to 138
6,COC(=O)c1cc2c(C)ccc(C)c2n1C(C)=O,92 to 93
7,COc1cc(C=O)cc2c1OC1(CCCC1)C2,54
8,CCCC[C@@H](NC(=O)OC(C)(C)C)C(=O)NCC(=O)OCc1ccccc1,85 to 86
9,O=[N+]([O-])c1c(O)c(O)cc2ccccc12,141 to 143
10,Cn1cc(-c2cccc(N3Cc4cc(C(C)(C)C)ccc4C3=O)c2CO)cc(Nc2ccc(C3CN(C(=O)OC(C)(C)C)C3)cn2)c1=O,151 to 152
11,COc1cc2c(cc1OC)CN(CCCc1ccc(NC(=O)c3nc4cc(C)c(C)cc4nc3OC)cc1)CC2,164 to 166
12,COc1c(Cl)cc(N2C(=O)N3CCCC3(Cc3ccc(C#N)cc3)C2=O)cc1Cl (centres undefined),95.1
13,C#CCn1c(Br)c(Br)c(Br)c1C#N,95 to 105
14,CC(C)(C)OC(=O)CC1CC(C=O)OC(C)(C)O1 (centres undefined),71 to 73
15,COc1cc2ccccc2c(Br)c1O,100 to 101
16,COC1=C(OC)C(=O)C2=C(CCC(CCn3c(=O)ccc4ccccc43)CC2)C1=O,88 to 90
17,CN1C(=O)C(c2cccc(-c3cccnc3F)c2)(c2cc(C=O)n(CCF)c2)N=C1N (centres undefined),218 to 221
18,COC(=O)[C@H]1CO[C@@H](C(C)(C)C)N1C(=O)Cl,78
19,O=[N+]([O-])c1ccc(-n2nnnc2-c2ccccc2-c2ccc(CBr)cc2)cc1,192 to 195
20,CCCCCCc1oc(C=Cc2ccccc2)nc1C(=O)O,133 to 134
21,CN1CCN(c2ccc3nc(N)c(C#N)c(NCc4ccccc4)c3c2)CC1,176
22,Cn1c(-c2nnc3ccc(NC=O)nn23)cnc1[N+](=O)[O-],224 to 226
23,Nc1cc2c(cc1Br)-c1cc(Br)c(N)cc1S2(=O)=O,> 355

row,Structure (SMILES),melting point [°C]
1,COc1c(C)c(NC(=O)NCCO)c(C)c2c1OCC2c1ccc(C(C)C)cc1 (centres undefined),127 to 129
2,O=C1Nc2c(F)cc(F)cc2C1c1ncnc2c1cnn2C1CCCC1 (centres undefined),> 300
3,CC(=O)N(CC(=O)O)c1csc(NC(=O)OCC(Cl)(Cl)Cl)n1,158
4,CCCCCCCCCCCCCCCCc1ccccc1O,54 to 55
5,O=C(NC1C(=O)Nc2ccccc2SC1c1ccccc1)OCc1ccccc1 (centres undefined),246 to 248
6,Cc1nnc2n1-c1sc(CC(=O)N3CCCCC3)cc1C(c1ccccc1Cl)=NC2C (centres undefined),182 to 183
7,CCOC(=O)[C@@H]1C[C@@H](O)CN1S(C)(=O)=O,111 to 113
8,CC(C)C1(C)N=C(c2ncc(C3CC3)cc2C(=O)O)NC1=O (centres undefined),157 to 163
9,O=c1nc(-c2ccccn2)sc2ccc(OCCCc3ccccc3)cc12,170
10,Cc1nc(N)sc1-c1ccnc(Nc2ccc3c(c2)OCO3)n1,211 to 213
11,O=c1[nH]c2cc(Br)ccc2c(=O)o1,280 to 281
12,c1ccc2c(c1)ncc1nc(C3CCCCC3)[nH]c12,205 to 206
13,O=C(Nc1ccncn1)C(CC1CCCC1)c1cccc(C(F)(F)F)c1 (centres undefined),113 to 115
14,CCCCOC(=O)[C@H]1CN(c2ccc3c(c2)oc(=O)n3C)C(=O)O1,182 to 184
15,O=C(O)c1ccccc1Nc1ccc(CCCc2ccc([N+](=O)[O-])cc2)cc1,150 to 153
16,CCOC(=O)C(NC=O)=C1CC2CCC(C1)N2C(=O)OCc1ccccc1,124
17,CCCCCCCCCCC#Cc1ccc2c(c1)c(C=O)cn2S(=O)(=O)c1ccc(C)cc1,84 to 86
18,COc1cc(-c2c(Cl)c(CNC(C)(C)C)nc3sc4c(c23)CCNC4)ccc1OC(C)C,157 to 158
19,Fc1ccc(-c2ncn(CCCSc3ccccc3)c2-c2ccncc2)cc1,98 to 99
20,Cc1cc(C)n(-c2ncc(Br)c(Nc3ccc(Cl)cc3)n2)n1,144 to 154
21,O=C(O)c1cccc(CN2C(=O)C3(COc4cc5c(cc43)CCO5)c3ccccc32)c1 (centres undefined),> 250
22,CNc1ccc(CCl)cc1[N+](=O)[O-],126 to 128
23,CC(NC(Nc1cc(C(F)(F)F)cc(C(F)(F)F)c1)=C(C#N)S(=O)(=O)c1ccc(Cl)cc1)C(C)(C)C (centres undefined),156 to 158

row,Structure (SMILES),melting point [°C]
1,COc1c(Cl)cc(C(=O)O)c2c1OCCO2,172
2,Cc1nc(-n2cc(C(=O)c3ccccc3)nn2)sc1C(=O)NCc1ccccc1,176 to 178
3,COCc1cnc2c(NC(=O)c3c(Cl)cccc3Cl)ccc(C)c2c1-n1ccnc1,179 to 180
4,CCOP(=O)(OCC)C(F)(F)c1ccc(CN(Cc2ccc(C(F)(F)P(=O)(OCC)OCC)cc2)C(=O)c2ccccc2)cc1,87 to 89
5,CC1(C(=O)N2C[C@H](Sc3ccc(OCC(F)(F)F)cc3C(F)(F)F)C[C@H]2C(=O)NC2(C#N)CC2)CC1,66 to 76
6,Oc1ccc(C2COc3c(ccc(O)c3O)C2)cc1 (centres undefined),225 to 226
7,COc1ccc(C=O)cc1I,104 to 107
8,COc1cc(CNc2nc(C)nc(C)c2Cl)ccc1OCc1ccccc1,101 to 105
9,CCN(c1nc(C)cc(C(C)Cn2cnnn2)n1)c1ccc(C(C)C)cc1Br (centres undefined),127 to 129
10,COCCN(CCOC)Cc1ccc(NC(=O)C2=Cc3cc(-c4ccc(C)cc4)ccc3OCC2)cc1,110 to 112
11,CNC(=O)c1ccc(-c2ccc3oc(C4CCN(C(=O)OC(C)C)CC4)nc3c2)cn1,158 to 161
12,COc1ncnc2c(Cl)c(NC(=S)NCCN)ccc12,230 to 232
13,O=C(O)CNC(=O)C(c1ccccc1)c1ccccc1,113 to 115
14,N#Cc1c(O)c2sccc2[nH]c1=O,> 300
15,CCCCOc1ccc2c3c([nH]c2c1)CC(NC(C)=O)CC3 (centres undefined),182 to 184
16,CCCN1CCN(c2cc3ccccc3c(=O)[nH]2)CC1,208 to 209
17,Clc1cccc(N2CCN(c3nc4cccccc-4n3)CC2)c1,217 to 219
18,CNc1nc(-c2ccc(-c3ccccc3)s2)c2cc(OC)c(OC)cc2n1,201 to 203
19,CCC[C@H]1CC[C@H]([C@H]2CC[C@H](c3ccc(C(C)=O)cc3)CC2)CC1,81
20,NC(=O)n1nc(-c2ccco2)cc1N,145
21,Cc1nn(C)c(C)c1Oc1cc(Cl)cc(C#N)c1,114 to 116

# Second part, the compound after the results:
row,melting point [°C],Structure (SMILES)
1,152 to 155,CC(Oc1ccccc1Cl)C(=O)OC1CC(O)C=C2C=CC(C)C(CCC3CC(O)CC(=O)O3)C21 (mixture of isomers)
2,64,CC(=O)c1c(F)cccc1N1CCN(CCCCOc2ccc3c(n2)NC(=O)CC3)CC1
3,112 to 113,O=C(O)Cc1ccc(OCc2ccccc2)c(OCc2ccccc2)c1
4,185 to 195,CNC(=O)C1CC(c2ccc(-c3ccc(N4C[C@H](Cn5ccnn5)OC4=O)cc3F)cn2)=NO1 (some centres undefined)
5,75,Cc1ccc(S(=O)(=O)OCCN2Cc3ccccc3C2=O)cc1
6,221 to 222,N#Cc1cc(-c2ccnc(Nc3cccc(Cl)c3)n2)ccn1
7,74 to 77,OCCOc1ccc2cc[nH]c2c1
8,197 to 199,O=C(NC1CCCCC1)NS(=O)(=O)c1ccc(CCNC(=O)N2CCCCC2=O)cc1
9,72 to 73,COc1cc(C#N)c(N=C(C)N2CCc3cc(OC)c(OCc4ccccc4)cc3C2)cc1OC
10,102,O=C(O)CCC(=O)N[C@@H]1CN2C(=O)N(c3cc(Cl)nc(Cl)c3)C(=O)[C@@]2(Cc2ccc(OC(F)(F)F)cc2)C1
11,222,N#Cc1c(Cl)ccc2cc(Cl)cnc12
12,112,CC(C)c1nc(Cl)c2c(-c3ccc([N+](=O)[O-])o3)nn(C)c2n1
13,184 to 189,CN1CCN2c3ccccc3Cn3c(c(CO)c4ccccc43)C2C1 (centres undefined)
14,117 to 118,CN(C)CC1CN(c2ccccc2)NC1=N (centres undefined)
15,150 to 152,COc1ccc(Cl)cc1C(=O)NCCc1ccc(Br)c(S(=O)(=O)N=CN(C)C)c1
16,219 to 220,Cc1cnc(N2CCC(c3ccc(N)cc3)CC2)n1C

row,melting point [°C],Structure (SMILES)
1,181,CCS(=O)(=O)c1cc(C(=O)NCC2CCCN2CC2CC2)c(OC)cc1N (centres undefined)
2,76 to 77,COC1=C(OC)C(=O)C2=C(CCC(CCOc3ccc(OC)cc3)CC2)C1=O
3,60 to 63,CCCSc1ncc(C(Cc2ccccc2)C(=O)O)n1Cc1ccccc1Cl (centres undefined)
4,172 to 174,Cc1ccc(-c2c(NS(=O)(=O)c3ccc(C(C)(C)C)cc3)ncnc2OCCOc2ncc(C#CC(C)(C)O)cn2)cc1
5,183 to 184,Nc1nc(N)c2ncn(COCCO)c2n1
6,153 to 156,CCC(=O)Nc1c(C#N)cnn1-c1c(Cl)cc(SC(F)(F)F)cc1Cl
7,124 to 126,COC(C)CNS(=O)(=O)c1cc(C2(O)CCC(=O)N2C)ccc1Cl (centres undefined)
8,102 to 104,CCCCCCCCCCCCC1=C(O)C(=O)c2c(Cl)cccc2C1=O
9,138 to 139,CCCNC(=O)c1ccc(/C=C(\C)c2ccc3c(c2)C(C)(C)CCO3)cc1
10,166 to 169,CSC1C(=O)Nc2ccc(Oc3ccc(Cl)cc3)cc21 (centres undefined)
11,217 to 218,CNC(=O)C(C)n1c(-c2ccc(Cl)cc2)nc2cccnc21 (centres undefined)
12,220,CCc1ccnc(C(=O)c2[nH]c3ccc(Cl)cc3c2CC(=O)O)c1Cl
13,158 to 160,CCCc1nn(C)c2c(=O)n(CCCOc3ccc(OC(C)(C)C(=O)O)cc3)c(C)nc12
14,270,Cc1cnc2[nH]c3ccccc3c2c1
15,155 to 157,Cc1c(C(=O)Nc2ccc(OCCCN3CCOCC3)c(C#N)c2)cnn1-c1ccc(Cl)cc1
16,123 to 125,Clc1ccc(-c2nc(Br)cnc2Br)cc1
